Results taken from patent US7335635B2, “14-3-3 binding molecules as sensitizers for anticancer therapies” (Emory University, priority 2001, dated 2008).
Values belong to the molecule of their own block, whether it stands above or below them.

Legend:
[1] = test system: caspase 3; assay: Caspase 3 activity in cell lysates (pNA release from Ac-DEVD-pNA); type: cell-based; conditions: FIG. 10a
Procedure: Cos-7 cells were lysed 12 hours after transfection with various amounts of DNA coding for EYFP-difopein. Equal amounts of lysates were assayed for the ability to liberate p-nitroaniline (pNA) from the caspase 3 substrate Ac-DEVD-pNA. […] In another study, Cos-7 cells were assayed as in FIG. 5, except that they were treated with 50 μM of the pan-caspase inhibitor zVAD-fink or vehicle immediately prior to transfection (FIG. 10b).

[2] = molecular target: T1, 14-3-3ζ dimer (Bos taurus, UniProt P63103); assay: R18-Sepharose bead competition with Bad derived phosphopeptides for 14-3-3 binding; conditions: 100 nM 14-3-3ζ dimer; FIG. 2
T1 sequence (P63103 1-245): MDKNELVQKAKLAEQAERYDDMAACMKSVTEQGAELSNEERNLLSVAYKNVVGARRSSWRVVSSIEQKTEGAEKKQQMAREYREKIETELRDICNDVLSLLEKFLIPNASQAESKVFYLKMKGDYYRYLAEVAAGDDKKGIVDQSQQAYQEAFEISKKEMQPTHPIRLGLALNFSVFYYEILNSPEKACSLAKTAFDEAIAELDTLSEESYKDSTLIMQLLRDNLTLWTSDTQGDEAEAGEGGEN
Procedure: R18 was covalently coupled to Sepharose beads. The beads were then incubated with 100 nM 14-3-3ζ dimer along with the indicated concentrations of synthetic phosphopeptides derived from Bad. pS136 contains a 14-3-3 binding site, while pS112 is a similar peptide incapable of binding 14-3-3. Unbound 14-3-3 was washed away from the beads and the remaining proteins were visualized by SDS-PAGE and sliver staining. […] See also, Masters et al. (2001) Molecular Pharmacology 60: 1325-1331, herein incorporated by reference.

[3] = test system: COS-7 cells; assay: Cisplatin-induced cell death with R18 expression, viability assay; type: cell-based; conditions: myc-tagged R18, cisplatin added 12 hours after transfection, read about 36 hours later; FIG. 11a
Procedure: (§1) Inhibition of 14-3-3/ligand interactions may facilitate apoptotic cell death induced by cytotoxic agents. To test this possibility, the effects of expression of R18 and difopein on cisplatin-induced cell death was examined (FIG. 11). In FIG. 11a, Cos-7 cells were transfected with a lacZ marker gene along with myc-tagged R18 DNA (amount used shown as the fraction of total DNA). 12 hours after transfection, the indicated concentrations of cisplatin were added. Approximately 36 hours later the viability of the cells was determined as in FIG. 3 above. In FIG. 11b, HeLa cervical cancer cells were transfected with EYFP or EYFP-difopein as indicated. 24 hours later, 50 μM cisplatin or vehicle was added. After 24 hours of cisplatin treatment, the cells were assayed as in 2 above.

[4] = test system: COS-7 cells; assay: Attachment based viability assay (lacZ marker, β-gal activity); type: cell-based; conditions: expression from transfected vector, FIG. 4, FIG. 8a
Procedure: R18 is placed under the control of the CMV promoter in a mammalian expression vector pCR3.1 (pSCM110). Cells expressing the control pcDNA3 along with a lacZ marker gave high β-gal activity that was set as 100% survival. […] The R18 effect was dose-dependent because increased R18 expression was correlated with decreased cell viability.
In FIG. 8a, Cos-7 cells were co-transfected with myc-tagged difopein or a control vector along with a lacZ reported gene. After approximately 48 hours floating cells were gently washed away and attached cells were lysed and assayed for β-galactosidase.

[5] = molecular target: T2, 14-3-3ζ/ASK1 (Bos taurus, UniProt P63103); assay: Peptide inhibition of [35S]-ASK1 binding to immobilized His-14-3-3ζ; conditions: FIG. 1
T2 sequence (P63103 1-245): T1 sequence (P63103 1-245)
Procedure: To determine the effectiveness of various 14-3-3 antagonist, including R18, S-Raf259, and pS-Raf-259, the peptide antagonists were preincubated with immobilized His-14-3-3ζ before adding [^35S]-labeled ASK1. After washing, 14-3-3-bound ASK1 was quantified by PhosphorImager. The percentage of ASK1 bound to 14-3-3 relative to peptide-free samples is plotted against increasing concentration of the test peptides (FIG. 1).

[6] = test system: COS-7 cells; assay: DNA content (sub G0) by propidium iodide flow cytometry; type: cell-based; conditions: for cell death (fraction of cells with sub G0 DNA content): 24 hours after transfection, FIG. 5
Procedure: The two acidic residues of R18 (Asp and Glu) which are involved in coordinating the basic cluster of 14-3-3 were changed to lysine. This peptide is not expected to bind 14-3-3, but it could retain interaction with other cellular partners if they do exist. Cos-7 cells were cotransfected with a farnesylated (EGFP[)] marker along with EYFP, EYFP-R18, or EYFP-R18 (D12K,E14K). After 24 hours, cells were fixed in ethanol and DNA was stained with propidium iodide. EGFP and PI signal intensities were measured on a FACScan flow cytometer (Becton Dickinson), and transfected cells were placed in various phases of the cell cycle based on their DNA content.
In yet another assay, (FIG. 8c) Cos-7 cells were transfected with EYFP or EYFP-difopein as indicated, and cell death was determined as in FIG. 5. Internucleosomal DNA cleavage, which is a commonly used marker of apoptosis, produces small fragments that can diffuse out of cells during ethanol fixation resulting in decreased signals being seen on staining for DNA (Sub-G0 DNA content). Therefore, the appearance of cell containing sub G0 levels of DNA indicates apoptotic cell death.

[7] = test system: 14-3-3 proteins; conditions: cited from earlier work
[8] = test system: COS-7 cells; assay: Annexin V phenotype of R18 induced cell death; type: cell-based; conditions: data not shown
[9] = test system: 14-3-3; conditions: phosphorylation-independent interaction; cited from earlier work
[10] = test system: HeLa cervical cancer cells; assay: Cisplatin-induced cell death with EYFP-difopein expression; type: cell-based; conditions: 50 μM cisplatin for 24 hours, FIG. 11b
Procedure: as §1

[11] = molecular target: T3, 14-3-3ζ/Raf-1 (Bos taurus, UniProt P63103); assay: Co-immunoprecipitation of FLAG-14-3-3ζ and endogenous Raf-1 in transfected HEK293 cells; type: cell-based; conditions: FIG. 3
T3 sequence (P63103 1-245): T1 sequence (P63103 1-245)
Description: Difopein is a 62 amino acid polypeptide having 14-3-3 antagonist activity. The amino acid sequence of difopein is shown in SEQ ID NO:2 and comprises two R18 monomers (amino acids 6-25 and 37-56 of SEQ ID NO:2) separated by non-repeat linker sequences (amino acids 26-36 of SEQ ID NO:2). […] Specifically, HEK293 cells were transfected with DNA coding for FLAG-tagged 14-3-3ζ and either EYFP or EYFP-difopein as indicated. 14-3-3 was immunoprecipitated using anti-FLAG (M2; Sigma Chemical Co.). In the presence of EYFP, 14-3-3ζ was able to co-precipitate endogenous Raf-1. […] See also, Masters et al. (2001) Journal of Biological Chemistry 276: 45193-45200, herein incorporated by reference.

[12] = test system: COS-7 cells; assay: Viability by microscopic examination of morphology of X-gal stained transfected cells; type: cell-based; conditions: about 24 hours post transfection; FIG. 8b
Procedure: In another assay, Cos-7 cells were cotransfected with a lacZ marker in addition to any EYFP-difopein fusion, EYFP alone, or empty vector. Approximately 24 hours post transfection, cells were fixed and transfected cells were identified by staining with X-gal. Viability of the transfected cells was determined by microscopic examination of cell morphology: live cells were flat, while dead cells were rounded up.

Molecule: Ac-DEVD-CHO [reference compound]
block of EYFP-difopein induced pNA release ([1]; Cos-7 lysates): completely blocked

Molecule: Pseudomonas aeruginosa exoenzyme S: exoenzyme S from Pseudomonas aeruginosa, a phosphorylation-independent 14-3-3 ligand
affinity for the amphipathic groove of 14-3-3 [9]: high affinity

Molecule: R18 (D12K, E14K): R18 with the two acidic residues (Asp and Glu) that coordinate the basic cluster of 14-3-3 changed to lysine (PHCVPRDLSWLKLKANMCLP; left off: large carriers)
cell death (fraction of cells with sub G0 DNA content) [6]: unable to induce cell death

Now from value to molecule, other results behind:

inhibitory effect on 14-3-3ζ/ASK1 compared with pS-Raf-259 [5]: stronger inhibitory affect
inhibition of the interaction of 14-3-3ζ with ASK1 ([5]; peptide preincubated with immobilized His-14-3-3ζ): potent inhibitory affect
Molecule: PHCVPRDLSWLDLEANMCLP [R18]
competition with Bad derived peptide for 14-3-3 binding [2]: competes with a Bad derived peptide for 14-3-3 binding
enhancement of cisplatin-induced cell death [3]: enhance the ability of an antineoplastic drug to kill cells
cell viability (β-gal activity) [4]: drastically decreased the population of viable cells
cell death (fraction of cells with sub G0 DNA content) [6]: increase in the fraction of cells containing less than normal amounts of DNA
specificity for 14-3-3 proteins [7]: high specificity
Kd ([7]; different isoforms of 14-3-3, similar affinity): 80 nM
annexin V phenotype [8]: annexin V-positive phenotype

binding to 14-3-3 in vivo [11]: can bind 14-3-3 in vivo
B1: difopein: 62 amino acid polypeptide comprising two R18 monomers separated by a non-repeat linker sequence (protein)
chain: SADGAPHCVPRDLSWLDLEANMCLPGAAGLDSADGAPHCVPRDLSWLDLEANMCLPGAAGLE
modifications: difopein polypeptide sequence
enhancement of cisplatin-induced cell death [10]: enhance the ability of an antineoplastic drug to kill cells
cell viability (β-gal activity) [4]: decreased β-gal activity
cell death compared with monomeric R18 ([6]; EYFP-tagged constructs, FIG. 7): dramatically enhanced the cell death
effect on the cell cycle (DNA content distribution, sub G0 cells excluded) ([6]; FIG. 8c, not shown): does not disrupt the cell cycle
sensitivity of induced cell death to constitutively active Akt ([6]; co-expression of constitutively active Akt, FIG. 9): relatively insensitive to Akt expression

co-precipitation of endogenous Raf-1 with 14-3-3ζ ([11]; anti-FLAG immunoprecipitation): blocked co-precipitation of Raf-1
B2: EYFP-difopein: EYFP-difopein fusion expressed from transfected DNA (protein)
chain: B1 chain
modifications: left off: large carriers
notes: EYFP-difopein fusion expressed from transfected DNA
reduction of the live cell population [12]: about one-half
pNA release from caspase 3 substrate Ac-DEVD-pNA ([1]; Cos-7 lysates 12 hours after transfection): dose dependent increase in pNA release
